What was measured:
[1] = tested on: children undergoing tonsillectomy; assay: Respiratory depression and prolonged PACU stay due to RD by ABCB1 genotype (Example 7)
Description: Children 6-15 years undergoing elective outpatient tonsillectomy were eligible for the study and recruited on the day of surgery. […] Clinical criteria for OSA designation included sleep disordered breathing with a history of snoring and either sleep pauses lasting more than 10 seconds or daytime drowsiness. Children were excluded from the study if they or their parents were non-English speaking.
(§1) All participants received standard perioperative care. Anesthesia was induced using sevoflurane followed by a propofol (2 mg/kg) bolus to facilitate endotracheal intubation. Anesthesia was maintained with sevoflurane without the use of neuromuscular blockade. […] All children receive prophylactic ondansetron (0.1 mg/kg) and dexamethasone (0.1 mg/kg) intraoperatively.
Duration of PACU stay (time to achieve PACU discharge readiness) was defined as the duration in PACU before achieving the following discharge criteria. […] This is discharge readiness time is different from actual PACU discharge time as delays due to social reasons (e.g. waiting for car rides) were not included.
Metrics for analgesic effectiveness and opioid-related adverse effects were recorded for each participant. For the metrics for opioid-related adverse effects, this study focused on two clinically and economically important outcomes: clinical RD and prolonged PACU stay (>90 minutes) secondary to respiratory depression assessed consistently by the research coordinator.
(§2) Blood was collected from each participant in the operating room under anesthesia and the DNA was isolated the same day and stored at −20 degree Celsius. Batched genotyping was performed after clinical data was entered on all study participants. The TaqMan allelic discrimination system assays and Genotyper Softerware Version 1.0.1 (Life Technologies, Applied Biosystems, Forest City, Calif.) were used to analyse and report the following ABCB1 polymorphisms: rs1045642, rs2032582, rs1128503, rs2229109, and rs9282564.
(§3) Prior to analysis, data qualities were examined. For the ABCB1 variants, allelic and genotype frequencies were assessed in white and black patients separately, and Hardy Weinberg equilibrium (HWE) was tested. To analyze binary outcomes (RD, prolonged PACU secondary to RD and analgesic intervention need), logistic regression was performed. […] Thus, maximum FLACC scores were analyzed using a zero-inflated negative binomial model to appropriately capture the distribution of this variable. […] To select the best fitting model, log likelihood, Akaike and Bayesian Information criterion were compared, and residuals were examined. […] To assess the single SNP association with the outcomes, additive models were used, in which the genotypes were recoded and tested as continuous variables. For the four bi-allelic SNPs, genotypes were recoded to 0, 1 and 2 according to the number of minor alleles. For rs2032582, GG genotype was recoded as 0; GA and GT genotypes were combined and recoded as 1, and TT and TA genotypes as 2. Statistical modeling was conducted with white and black patients separately and combined. When races were combined, the effects of race and race*SNP interaction were tested.

[2] = tested on: children undergoing tonsillectomy; assay: Postoperative analgesia measurements by ABCB1 genotype (Example 7); settings: for Maximum FLACC: median (IQR); for Post-Operative morphine: patients with at least one post-operative intervention
Protocol: as §1, §2, §3

[3] = Blacks, ABCB1 Rs1128503 CC, N=24
[4] = Blacks, ABCB1 Rs1128503 TC, N=18
[5] = Blacks, ABCB1 Rs1128503 TT, N=2
[6] = Blacks, ABCB1 Rs2032582 GA, N=1
[7] = Blacks, ABCB1 Rs2032582 GG, N=35
[8] = Blacks, ABCB1 Rs2032582 GT, N=8
[9] = Blacks, ABCB1 Rs2229109 CA, N=1
[10] = Blacks, ABCB1 Rs2229109 CC, N=43
[11] = Blacks, ABCB1 Rs9282564 AA, N=41
[12] = Blacks, ABCB1 Rs9282564 GA, N=3
[13] = Blacks, ABCB1 rs10456542 CC, N=27
[14] = Blacks, ABCB1 rs10456542 TC, N=14
[15] = Blacks, ABCB1 rs10456542 TT, N=3
[16] = Whites, ABCB1 Rs1128503 CC, N=70
[17] = Whites, ABCB1 Rs1128503 TC, N=102
[18] = Whites, ABCB1 Rs1128503 TT, N=47
[19] = Whites, ABCB1 Rs2032582 GA, N=7
[20] = Whites, ABCB1 Rs2032582 GG, N=65
[21] = Whites, ABCB1 Rs2032582 GT, N=100
[22] = Whites, ABCB1 Rs2032582 TA, N=1
[23] = Whites, ABCB1 Rs2032582 TT, N=46
[24] = Whites, ABCB1 Rs2229109 CA, N=14
[25] = Whites, ABCB1 Rs2229109 CC, N=205
[26] = Whites, ABCB1 Rs9282564 AA, N=171
[27] = Whites, ABCB1 Rs9282564 GA, N=46
[28] = Whites, ABCB1 Rs9282564 GG, N=2
[29] = Whites, ABCB1 rs10456542 CC, N=49
[30] = Whites, ABCB1 rs10456542 TC, N=100
[31] = Whites, ABCB1 rs10456542 TT, N=70

Structure (SMILES): CN1CC[C@]23c4c5ccc(O)c4O[C@H]2[C@@H](O)C=C[C@H]3[C@H]1C5 [morphine]
- patients with RD ([1]; 263 patients): 19%
- patients with prolonged PACU stay due to RD ([1]; 263 patients): 11%
- Prolonged PACU due to RD % ([1]; Blacks, ABCB1 rs1045642 CC, N=27): 7%
- Prolonged PACU due to RD % ([1]; Blacks, ABCB1 rs1045642 TC, N=14): 21%
- Prolonged PACU due to RD % ([1]; Blacks, ABCB1 rs1045642 TT, N=3): 33%
- Prolonged PACU due to RD % ([1]; Blacks, ABCB1 rs1128503 CC, N=24): 8%
- Prolonged PACU due to RD % ([1]; Blacks, ABCB1 rs1128503 TC, N=18): 17%
- Prolonged PACU due to RD % ([1]; Blacks, ABCB1 rs1128503 TT, N=2): 50%
- Prolonged PACU due to RD % ([1]; Blacks, ABCB1 rs2032582 GA, N=1): 0%
- Prolonged PACU due to RD % ([1]; Blacks, ABCB1 rs2032582 GG, N=35): 11%
- Prolonged PACU due to RD % ([1]; Blacks, ABCB1 rs2032582 GT, N=8): 25%
- Prolonged PACU due to RD % ([1]; Blacks, ABCB1 rs2229109 CA, N=1): 0%
- Prolonged PACU due to RD % ([1]; Blacks, ABCB1 rs2229109 CC, N=43): 14%
- Prolonged PACU due to RD % ([1]; Blacks, ABCB1 rs9282564 AA, N=41): 10%
- Prolonged PACU due to RD % ([1]; Blacks, ABCB1 rs9282564 GA, N=3): 67%
- Prolonged PACU due to RD % ([1]; Whites, ABCB1 rs1045642 CC, N=49): 4%
- Prolonged PACU due to RD % ([1]; Whites, ABCB1 rs1045642 TC, N=100): 15%
- Prolonged PACU due to RD % ([1]; Whites, ABCB1 rs1045642 TT, N=70): 10%
- Prolonged PACU due to RD % ([1]; Whites, ABCB1 rs1128503 CC, N=70): 9%
- Prolonged PACU due to RD % ([1]; Whites, ABCB1 rs1128503 TC, N=102): 13%
- Prolonged PACU due to RD % ([1]; Whites, ABCB1 rs1128503 TT, N=47): 11%
- Prolonged PACU due to RD % ([1]; Whites, ABCB1 rs2032582 GA, N=7): 0%
- Prolonged PACU due to RD % ([1]; Whites, ABCB1 rs2032582 GG, N=65): 9%
- Prolonged PACU due to RD % ([1]; Whites, ABCB1 rs2032582 GT, N=100): 14%
- Prolonged PACU due to RD % ([1]; Whites, ABCB1 rs2032582 TA, N=1): 0%
- Prolonged PACU due to RD % ([1]; Whites, ABCB1 rs2032582 TT, N=46): 9%
- Prolonged PACU due to RD % ([1]; Whites, ABCB1 rs2229109 CA, N=14): 14%
- Prolonged PACU due to RD % ([1]; Whites, ABCB1 rs2229109 CC, N=205): 11%
- Prolonged PACU due to RD % ([1]; Whites, ABCB1 rs9282564 AA, N=171): 8%
- Prolonged PACU due to RD % ([1]; Whites, ABCB1 rs9282564 GA, N=46): 20%
- Prolonged PACU due to RD % ([1]; Whites, ABCB1 rs9282564 GG, N=2): 100%
- median of maximum FLACC scores ([2]; 263 patients): 3
- patients who needed analgesic intervention(s) ([2]; 263 patients): 62%
- Analges. % (analgesic interventions %) [2, 3]: 88%
- Maximum FLACC [2, 3]: 5 (4-8)
- Post-Operative morphine ([2]; Blacks, ABCB1 Rs1128503 CC, N=24, mean ± SD): 0.12 ± 0.08 mg/kg
- Analges. % (analgesic interventions %) [2, 4]: 89%
- Maximum FLACC [2, 4]: 6 (3-9)
- Post-Operative morphine ([2]; Blacks, ABCB1 Rs1128503 TC, N=18, mean ± SD): 0.13 ± 0.05 mg/kg
- Analges. % (analgesic interventions %) [2, 5]: 100%
- Maximum FLACC [2, 5]: 4 (0-8)
- Post-Operative morphine ([2]; Blacks, ABCB1 Rs1128503 TT, N=2, mean ± SD): 0.08 ± 0.03 mg/kg
- Analges. % (analgesic interventions %) [2, 6]: 100%
- Maximum FLACC [2, 6]: 4 (4-4)
- Post-Operative morphine [2, 6]: 0.08 mg/kg
- Analges. % (analgesic interventions %) [2, 7]: 91%
- Maximum FLACC [2, 7]: 5 (3-8)
- Post-Operative morphine ([2]; Blacks, ABCB1 Rs2032582 GG, N=35, mean ± SD): 0.12 ± 0.07 mg/kg
- Analges. % (analgesic interventions %) [2, 8]: 75%
- Maximum FLACC [2, 8]: 8 (2-9)
- Post-Operative morphine ([2]; Blacks, ABCB1 Rs2032582 GT, N=8, mean ± SD): 0.11 ± 0.04 mg/kg
- Analges. % (analgesic interventions %) [2, 9]: 100%
- Maximum FLACC [2, 9]: 8 (8-8)
- Post-Operative morphine [2, 9]: 0.04 mg/kg
- Analges. % (analgesic interventions %) [2, 10]: 88%
- Maximum FLACC [2, 10]: 5 (3-8)
- Post-Operative morphine ([2]; Blacks, ABCB1 Rs2229109 CC, N=43, mean ± SD): 0.12 ± 0.06 mg/kg
- Analges. % (analgesic interventions %) [2, 11]: 88%
- Maximum FLACC [2, 11]: 5 (3-8)
- Post-Operative morphine ([2]; Blacks, ABCB1 Rs9282564 AA, N=41, mean ± SD): 0.12 ± 0.07 mg/kg
- Analges. % (analgesic interventions %) [2, 12]: 100%
- Maximum FLACC [2, 12]: 8 (8-10)
- Post-Operative morphine ([2]; Blacks, ABCB1 Rs9282564 GA, N=3, mean ± SD): 0.10 ± 0.00 mg/kg
- Analges. % (analgesic interventions %) [2, 13]: 89%
- Maximum FLACC [2, 13]: 5 (4-8)
- Post-Operative morphine ([2]; Blacks, ABCB1 rs10456542 CC, N=27, mean ± SD): 0.12 ± 0.07 mg/kg
- Analges. % (analgesic interventions %) [2, 14]: 86%
- Maximum FLACC [2, 14]: 7 (1-8)
- Post-Operative morphine ([2]; Blacks, ABCB1 rs10456542 TC, N=14, mean ± SD): 0.12 ± 0.05 mg/kg
- Analges. % (analgesic interventions %) [2, 15]: 100%
- Maximum FLACC [2, 15]: 8 (3-8)
- Post-Operative morphine ([2]; Blacks, ABCB1 rs10456542 TT, N=3, mean ± SD): 0.12 ± 0.11 mg/kg
- Analges. % (analgesic interventions %) [2, 16]: 57%
- Maximum FLACC [2, 16]: 3 (0-5)
- Post-Operative morphine ([2]; Whites, ABCB1 Rs1128503 CC, N=70, mean ± SD): 0.09 ± 0.04 mg/kg
- Analges. % (analgesic interventions %) [2, 17]: 57%
- Maximum FLACC [2, 17]: 2 (0-5)
- Post-Operative morphine ([2]; Whites, ABCB1 Rs1128503 TC, N=102, mean ± SD): 0.10 ± 0.05 mg/kg
- Analges. % (analgesic interventions %) [2, 18]: 53%
- Maximum FLACC [2, 18]: 1 (0-5)
- Post-Operative morphine ([2]; Whites, ABCB1 Rs1128503 TT, N=47, mean ± SD): 0.08 ± 0.04 mg/kg
- Analges. % (analgesic interventions %) [2, 19]: 43%
- Maximum FLACC [2, 19]: 2 (1-5)
- Post-Operative morphine ([2]; Whites, ABCB1 Rs2032582 GA, N=7, mean ± SD): 0.09 ± 0.05 mg/kg
- Analges. % (analgesic interventions %) [2, 20]: 58%
- Maximum FLACC [2, 20]: 4 (0-6)
- Post-Operative morphine ([2]; Whites, ABCB1 Rs2032582 GG, N=65, mean ± SD): 0.09 ± 0.04 mg/kg
- Analges. % (analgesic interventions %) [2, 21]: 57%
- Maximum FLACC [2, 21]: 2 (0-5)
- Post-Operative morphine ([2]; Whites, ABCB1 Rs2032582 GT, N=100, mean ± SD): 0.09 ± 0.05 mg/kg
- Analges. % (analgesic interventions %) [2, 22]: 100%
- Maximum FLACC [2, 22]: 8 (8-8)
- Post-Operative morphine [2, 22]: 0.21 mg/kg
- Analges. % (analgesic interventions %) [2, 23]: 52%
- Maximum FLACC [2, 23]: 1 (1-5)
- Post-Operative morphine ([2]; Whites, ABCB1 Rs2032582 TT, N=46, mean ± SD): 0.09 ± 0.04 mg/kg
- Analges. % (analgesic interventions %) [2, 24]: 50%
- Maximum FLACC [2, 24]: 2 (1-4)
- Post-Operative morphine ([2]; Whites, ABCB1 Rs2229109 CA, N=14, mean ± SD): 0.06 ± 0.02 mg/kg
- Analges. % (analgesic interventions %) [2, 25]: 57%
- Maximum FLACC [2, 25]: 2 (0-5)
- Post-Operative morphine ([2]; Whites, ABCB1 Rs2229109 CC, N=205, mean ± SD): 0.09 ± 0.05 mg/kg
- Analges. % (analgesic interventions %) [2, 26]: 56%
- Maximum FLACC [2, 26]: 2 (0-5)
- Post-Operative morphine ([2]; Whites, ABCB1 Rs9282564 AA, N=171, mean ± SD): 0.09 ± 0.04 mg/kg
- Analges. % (analgesic interventions %) [2, 27]: 54%
- Maximum FLACC [2, 27]: 2 (0-4)
- Post-Operative morphine ([2]; Whites, ABCB1 Rs9282564 GA, N=46, mean ± SD): 0.09 ± .05 mg/kg
- Analges. % (analgesic interventions %) [2, 28]: 100%
- Maximum FLACC [2, 28]: 7 (6-7)
- Post-Operative morphine ([2]; Whites, ABCB1 Rs9282564 GG, N=2, mean ± SD): 0.16 ± 0.07 mg/kg
- Analges. % (analgesic interventions %) [2, 29]: 63%
- Maximum FLACC [2, 29]: 4 (0-6)
- Post-Operative morphine ([2]; Whites, ABCB1 rs10456542 CC, N=49, mean ± SD): 0.09 ± 0.03 mg/kg
- Analges. % (analgesic interventions %) [2, 30]: 52%
- Maximum FLACC [2, 30]: 2 (0-4)
- Post-Operative morphine ([2]; Whites, ABCB1 rs10456542 TC, N=100, mean ± SD): 0.09 ± 0.05 mg/kg
- Analges. % (analgesic interventions %) [2, 31]: 57%
- Maximum FLACC [2, 31]: 2 (1-5)
- Post-Operative morphine ([2]; Whites, ABCB1 rs10456542 TT, N=70, mean ± SD): 0.10 ± 0.05 mg/kg
- post-operative morphine in patients who needed intervention ([2]; average): 0.10 ± 0.05 mg/kg
